Data as given in the NIST ThermoML archive (doi:10.1016/j.fluid.2016.01.035).
± gives the expanded uncertainty stated by the source.

What was measured:
[1] = for vapor or sublimation pressure: Liquid, Transpiration method
[2] = Molar enthalpy of transition or fusion; details: Crystal; DSC
[3] = molar enthalpy of vaporization or sublimation; details: 298.15 K; Crystal; TGA

Normal melting temperature ([1]; Crystal, DTA) [°C]	Molar enthalpy of transition or fusion [2] [kcal/mol]	molar enthalpy [3] [kcal/mol]	vapor or sublimation pressure ([1]; 340.2 K) [kPa]	vapor or sublimation pressure ([1]; 343.2 K) [kPa]	vapor or sublimation pressure ([1]; 348.2 K) [kPa]	vapor or sublimation pressure ([1]; 353.1 K) [kPa]	vapor or sublimation pressure ([1]; 358.2 K) [kPa]	vapor or sublimation pressure ([1]; 363.2 K) [kPa]	vapor or sublimation pressure ([1]; 368.1 K) [kPa]	vapor or sublimation pressure ([1]; 370.2 K) [kPa]	vapor or sublimation pressure ([1]; 373.2 K) [kPa]	vapor or sublimation pressure ([1]; 376.2 K) [kPa]	SMILES
172.8 ± 0.5	8.29 ± 0.191	32.4 ± 0.478	–	–	–	–	–	–	–	–	–	–	COc1cc(C=CC(=O)O)ccc1O [4-hydroxy-3-methoxycinnamic acid]
–	5.62 ± 0.55	–	9.7e-05 ± 4e-06	0.000128 ± 6e-06	0.00021 ± 9e-06	0.000324 ± 1.4e-05	0.000513 ± 2.2e-05	0.000769 ± 3.3e-05	0.00117 ± 5e-05	0.0014 ± 6e-05	0.00179 ± 8e-05	0.00229 ± 0.0001	COC(=O)C=Cc1ccc(O)c(OC)c1 [methyl 3-(4-hydroxy-3-methoxyphenyl)-2-propenoate]
